Data reported in publication PMC9583322, “Vicinal Diaryl-Substituted Isoxazole and Pyrazole Derivatives with In Vitro Growth Inhibitory and In Vivo Antitumor Activity” (ACS Omega, 2022).

Legend:
PARP = PARP cleavage western blotting; type: cell-based, human; settings: 5 μM, 48 h; MCF7, MDA-MB-231, Mahlavu; except for 11 treated MCF7 and Huh7 cells
Procedure: Cells were treated for 5 μM compounds 11 and 85 or control (DMSO). The treated cells were collected with a scraper at end of 48 h incubation and lysates were prepared. Protein concentration was calculated with a BCA assay. The protein levels were analyzed using protein electrophoresis according to the manufacturer’s protocol for near-infrared (NIR) Western Blot analysis (Mini-PROTEAN Tetra Cell Systems, Bio-Rad). The samples (40 μg /well) were loaded onto TGX precast gels, and protein transfer from gel to an LF-PVDF membrane was done using Trans-Blot Turbo System (Bio-Rad). Primary antibodies (PARP, CST, #9532S) and Calnexin (CST, #2679) and secondary antibodies IRDye 680RD Goat Anti Rabbit (Li-Cor, # 92668071) and IRDye- 800CW Goat Anti Rabbit (Licor, # 926e32211) were used for western blotting, and the proteins were monitored in fluorescence system using Odyssey CLx- LICOR imaging system.[32]

PLC-PRF-5 = experiment: SRB cytotoxicity assay; type: cell-based; settings: Homo sapiens, 72 h treatment
Procedure: (§1) HepG2, FOCUS, Hep3B, Mahlavu, Huh7, Hep40, and PLC-PRF-5 hepatocellular carcinoma cells; MCF-7, MDA-MB-231, MDA-MB-468, SKBR3, and ZR-75 breast cancer cells; and normal-like epithelial MCF-10A breast cells were cultured in low-glucose Dulbecco’s modified Eagle’s medium (DMEM) (Biological Industries-BI) supplemented with 10% fetal bovine serum (FBS) (Gibco/Thermo Fisher Scientific), 2 mM L-Glutamine (Gibco/Thermo Fisher Scientific), 100 Units/mL Penicillin/Streptomycin, and 0.1 mM non-essential amino acid (Gibco/Thermo Fisher Scientific). SNU475 hepatocellular carcinoma cells were maintained in RPMI (Biological Industries-BI) supplemented with 10% fetal bovine serum (FBS) (Gibco/Thermo Fisher Scientific), L-Glutamine (Gibco/Thermo Fisher Scientific), and 100 Units/mL Penicillin/Streptomycin, while ZR-75 breast cancer cells were cultured RPMI (Biological Industries-BI) supplemented with 10% fetal bovine serum (FBS) (Gibco/Thermo Fisher Scientific), 1× sodium pyruvate, and %4.5 glucose. Normal-like MCF-10A breast cells were sustained in DMEM/HAM’S F12 (Hyclone) supplemented with 10% fetal bovine serum (FBS) (Gibco/Thermo Fisher Scientific), EGF (20 ng/mL), Hydrocortisone ([…]), cholera toxin (100 ng/mL), insulin (10 μg/mL), and 100 Units/mL Penicillin/Streptomycin. The cells were cultivated at 37 °C in a humidified incubator under 5% CO2.
(§2) Mahlavu, FOCUS, SNU475 (1000 cell/well in 150 μL/well); Huh7, MCF7 (2500 cell/well in 150 μL/well); HepG2, Hep3B, SKBR3 (3000 cell/well in 150 μL/well); PLC-PRF-5, Hep40 (5000 cell/well in 150 μL/well); MDA-MB-231, MDA-MB-468, MCF10A (6000 cell/well in 150 μL/well); and ZR-75 (7500 cell/well in 150 μL/well) were cultured in 96-well plates and were inoculated in an incubator for 24 hours. The compounds were dissolved in dimethyl sulfoxide (DMSO) (Sigma, St Louis, MO) as a 20 mM stock solution. The treatment of cells with the compounds was done in a concentration range starting from 40 to 2.5 μM. The compounds which were below 2.5 μM were tested in a concentration range from 2.5 to 0.15 μM. End of the 72h compound treatment, the cells were fixed using 10% (v/v) trichloroacetic acid (MERCK) for an hour and washed with ddH2O, and left for air-drying. The fixed plates were stained with 50 μL of sulforhodamine B (SRB) solution (Sigma) at RT for 10 min. To remove unbound SRB dye, acetic acid was used to wash cells three times and left for drying. The protein-bound SRB was solubilized with 10 mM Tris-base (Sigma) and their absorbance was measured with a 96-well plate reader at 515 nm wavelength (ELx800, Biotek). The IC50 values of compounds were calculated in comparison with control group DMSO. Data with R^2 values larger than 0.9 are considered significant.

Hep3B = experiment: SRB cytotoxicity assay; type: cell-based; settings: Homo sapiens, 72 h treatment
Procedure: as §1, §2

HepG2 = experiment: SRB cytotoxicity assay; type: cell-based; settings: Homo sapiens, 72 h treatment
Procedure: as §1, §2

Hep40 = experiment: SRB cytotoxicity assay; type: cell-based; settings: Homo sapiens, 72 h treatment
Procedure: as §1, §2

MDA-MB468 = experiment: SRB cytotoxicity assay; type: cell-based; settings: Homo sapiens, MDA-MB-468, 72 h treatment
Procedure: as §1, §2

SNU475 = experiment: SRB cytotoxicity assay; type: cell-based; settings: Homo sapiens, SNU-475, 72 h treatment
Procedure: as §1, §2

FOCUS = experiment: SRB cytotoxicity assay; type: cell-based; settings: Homo sapiens, 72 h treatment
Procedure: as §1, §2

MDA-MB231 = experiment: SRB cytotoxicity assay; type: cell-based; settings: Homo sapiens, MDA-MB-231, 72 h treatment
Procedure: as §1, §2

ZR75 = experiment: SRB cytotoxicity assay; type: cell-based; settings: Homo sapiens, 72 h treatment
Procedure: as §1, §2

SKBR3 = experiment: SRB cytotoxicity assay; type: cell-based; settings: Homo sapiens, SK-BR-3, 72 h treatment
Procedure: as §1, §2

Mouse PK, IV and PO = type: in vivo
Procedure: 1000 Mean Mice PK plasma concentrations after
Figure S2. Plasma concentrations vs. time profile of 85 after single dose IV (1 mg/kg) and PO
(10 mg/kg) administrations in male CD-1 mice. The PK study was done at Syngene
International, Ltd., India. […]

[1] = male, CD-1, plasma, 1 mg/kg, Mouse IV PK, 1 mpk
[2] = male, CD-1, plasma, 10 mg/kg, Mouse PO PK, 10 mpk

SMILES | PARP cleavage (PARP) | IC50 (PLC-PRF-5) | IC50 (Hep3B) | IC50 (HepG2) | IC50 (Hep40) | IC50 (MDA-MB468) | IC50 (SNU475) | IC50 (FOCUS) | IC50 (MDA-MB231) | IC50 (ZR75) | IC50 (SKBR3) | Co (Mouse PK, IV and PO; Mouse IV PK, 1 mpk) | AUC (Mouse PK, IV and PO; [1]) | Vd (Mouse PK, IV and PO; [1]) | half-life (Mouse PK, IV and PO; [1]) | clearance (Mouse PK, IV and PO; male, CD-1, plasma, 1 mg/kg, Mouse IV PK, 1 mpk, read-out: Clp (converted)) | AUC (Mouse PK, IV and PO; [2]) | Cmax (Mouse PK, IV and PO; [2]) | bioavailability (Mouse PK, IV and PO; [2]) | half-life (Mouse PK, IV and PO; [2])
Cc1ccccc1COc1ccc(-c2noc(C)c2-c2ccc(Cl)cc2)cc1 [compound 11, 4-(4-Chlorophenyl)-5-methyl-3-(4-((2-methylbenzyl)oxy)phenyl)isoxazole] | increase in PARP cleavage | 9500 nM | 3000 nM | 2100 nM | 8600 nM | 2800 nM | 1700 nM | 2100 nM | 2000 nM | 7600 nM | 3500 nM | – | – | – | – | – | – | – | – | –
Cc1ccccc1COc1ccc(-c2ccnn2-c2ccc(Cl)cc2)cc1 [compound 85, 1-(4-Chlorophenyl)-5-(4-((2-methylbenzyl)oxy)phenyl)-1H-pyrazole] | increase in PARP cleavage | 6500 nM | 7900 nM | 1400 nM | 5200 nM | 1000 nM | 1500 nM | 2400 nM | 900 nM | 5500 nM | 1800 nM | 393 ng/mL | 436 ng·h/mL | 13.2 L/kg | 3.85 h | 38.8 mL/min/kg | 192 ng·h/mL | 19.3 ng/mL | 5% | 6.64 h
